The subject of one assay is HSV-1 strain F or KOS. The assay can be described thus: Inhibition of herpes simplex virus (HSV-1) replication in cell culture (BHK-21 cells, glycoprotein C ELISA). The assay is classed as cell-based. The note with it: Human alphaherpesvirus 1, BHK-21, Group 1 Table 1 entries. As for the experimental part:
B) Inhibition of Herpes Simplex Virus (HSV-1) Replication in Cell Culture
BHK-21 cells clone 13 (ATCC CCL10) were incubated for two days in 850 cm^2 roller bottles (2×10^7 cells/bottle) with A-MEM medium (Gibco Canada Inc., Burlington, Ontario, Canada) supplemented with 8% (v/v) fetal bovine serum (FBS, Gibco Canada, Inc.). The cells were trypsinized and then 3,000 cells in 100 μL of fresh medium were transferred into each well of a 96-well microtiter plate. The cells were incubated at […] for a period of 3 days to reach a density of 50,000 cells per well. The cells were washed twice with 100 μL of α-MEM supplemented with 2% heat inactivated FBS and incubated for 1-2 hours in 100 μL of the same medium.
Thereafter, the cells were infected with HSV-1 strain F or KOS (multiplicity of infection =0.05 PFU/cell) in 50 μL of α-MEM supplemented with 2% heat inactivated FBS. Following one hour of virus absorption at 37°, the medium was removed and the cells were washed with α-MEM supplemented with 2% heat inactivated FBS (2×100 μL). The cells were incubated with or without 100 μL of the appropriate concentration of test reagent in α-MEM medium supplemented with 2% heat inactivated FBS. After 24 hours of incubation at 37°, the extent of viral replication was determined by an ELISA assay; for instance, the following assay that detects the late glycoprotein C of HSV-1.
Cells were fixed in the microtiter plate with 100 μL of 0.063% glutaraldehyde in phosphate buffered saline for 30 min at room temperature. The microtiter plate was then washed once with casein blocking solution and blocked with 200 μL of the same solution for one hour at room temperature. Thereafter, 100 μL of mAb C11 recognizing the glycoprotein C of HSV-1 (see E. Trybala et al., Journal of General Virology, 1994, 75, 743) was added to each well for two hours at room temperature. The plate was washed three times with phosphate buffered saline containing 0.05% polyoxyethylene (20) sorbitan monooleate. The cells were incubated with 100 μL of sheep anti-mouse IgG horseradish peroxidase for one hour at room temperature in the dark.
The plate was washed three times with 200 μL of the above-noted phosphate buffer saline preparation, and then once with 0.1 M sodium citrate (pH 4.5). Thereafter, 100 μL of orthophenylenediamine dihydrochloride (OPD, Gibco, Canada Inc.) was added to each well. The plate was agitated on a microplate shaker for 30 min in the dark. Color development was monitored at 450 nm using a microplate spectrophotometer.
SAS was used to calculate % inhibition of viral replication and to generate EC50 values.
For orientation: In an ELISA, binding on a coated surface is turned into a signal by an enzyme label.

The target of another assay is T1, HSV-1 helicase-primase (Human herpesvirus 1, UniProt P10189+P10236).
T1 construct: made in house; host or cells: Sf21 insect cells triply infected with recombinant baculoviruses (UL5, UL8, UL52)
T1 sequence (P10192 whole entry): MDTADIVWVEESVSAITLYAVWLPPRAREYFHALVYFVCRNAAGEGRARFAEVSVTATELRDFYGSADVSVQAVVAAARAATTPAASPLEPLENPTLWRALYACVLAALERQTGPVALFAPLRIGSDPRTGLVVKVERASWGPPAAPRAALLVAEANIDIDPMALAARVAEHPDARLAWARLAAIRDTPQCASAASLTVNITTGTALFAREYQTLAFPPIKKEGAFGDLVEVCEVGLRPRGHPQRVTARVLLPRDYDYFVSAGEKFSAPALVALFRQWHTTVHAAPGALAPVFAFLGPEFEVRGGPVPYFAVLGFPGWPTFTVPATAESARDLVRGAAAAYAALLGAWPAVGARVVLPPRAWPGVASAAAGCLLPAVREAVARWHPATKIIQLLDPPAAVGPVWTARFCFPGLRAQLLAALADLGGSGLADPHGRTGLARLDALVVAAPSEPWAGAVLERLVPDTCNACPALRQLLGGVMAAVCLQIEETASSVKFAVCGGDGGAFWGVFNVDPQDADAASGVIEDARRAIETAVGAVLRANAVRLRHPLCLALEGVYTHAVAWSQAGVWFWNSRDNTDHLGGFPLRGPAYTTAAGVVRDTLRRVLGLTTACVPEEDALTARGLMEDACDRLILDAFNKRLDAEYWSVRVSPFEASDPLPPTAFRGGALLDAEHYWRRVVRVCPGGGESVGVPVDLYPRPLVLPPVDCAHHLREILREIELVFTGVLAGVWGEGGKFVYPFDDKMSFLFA
T1 sequence (P10236 whole entry): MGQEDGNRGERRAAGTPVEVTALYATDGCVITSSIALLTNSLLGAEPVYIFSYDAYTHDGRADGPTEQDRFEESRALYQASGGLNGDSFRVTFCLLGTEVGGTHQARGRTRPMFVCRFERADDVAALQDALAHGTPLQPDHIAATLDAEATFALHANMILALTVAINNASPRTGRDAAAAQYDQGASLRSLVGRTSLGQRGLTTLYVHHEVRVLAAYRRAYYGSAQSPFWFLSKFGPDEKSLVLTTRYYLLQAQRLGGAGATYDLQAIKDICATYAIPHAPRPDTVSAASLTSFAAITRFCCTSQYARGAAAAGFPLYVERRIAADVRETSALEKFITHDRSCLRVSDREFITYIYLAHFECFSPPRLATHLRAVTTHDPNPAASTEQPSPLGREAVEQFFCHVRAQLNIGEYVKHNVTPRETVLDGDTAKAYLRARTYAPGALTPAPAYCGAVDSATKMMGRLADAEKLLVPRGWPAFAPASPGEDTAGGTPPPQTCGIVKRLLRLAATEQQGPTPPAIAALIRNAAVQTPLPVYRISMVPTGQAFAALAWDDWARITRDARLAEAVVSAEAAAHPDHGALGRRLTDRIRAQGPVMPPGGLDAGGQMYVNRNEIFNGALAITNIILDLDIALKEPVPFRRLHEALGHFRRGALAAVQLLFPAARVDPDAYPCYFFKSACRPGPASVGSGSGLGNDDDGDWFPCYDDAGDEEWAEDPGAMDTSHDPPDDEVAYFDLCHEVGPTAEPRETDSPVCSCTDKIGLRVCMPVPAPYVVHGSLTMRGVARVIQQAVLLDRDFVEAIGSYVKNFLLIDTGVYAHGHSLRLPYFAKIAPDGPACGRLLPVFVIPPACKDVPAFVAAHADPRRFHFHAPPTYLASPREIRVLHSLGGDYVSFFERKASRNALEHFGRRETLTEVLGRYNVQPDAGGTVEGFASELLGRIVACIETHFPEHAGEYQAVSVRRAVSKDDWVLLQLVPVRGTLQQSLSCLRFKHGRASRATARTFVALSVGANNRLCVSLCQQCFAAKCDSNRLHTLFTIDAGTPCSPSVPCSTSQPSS
T1 sequence (P10189 whole entry): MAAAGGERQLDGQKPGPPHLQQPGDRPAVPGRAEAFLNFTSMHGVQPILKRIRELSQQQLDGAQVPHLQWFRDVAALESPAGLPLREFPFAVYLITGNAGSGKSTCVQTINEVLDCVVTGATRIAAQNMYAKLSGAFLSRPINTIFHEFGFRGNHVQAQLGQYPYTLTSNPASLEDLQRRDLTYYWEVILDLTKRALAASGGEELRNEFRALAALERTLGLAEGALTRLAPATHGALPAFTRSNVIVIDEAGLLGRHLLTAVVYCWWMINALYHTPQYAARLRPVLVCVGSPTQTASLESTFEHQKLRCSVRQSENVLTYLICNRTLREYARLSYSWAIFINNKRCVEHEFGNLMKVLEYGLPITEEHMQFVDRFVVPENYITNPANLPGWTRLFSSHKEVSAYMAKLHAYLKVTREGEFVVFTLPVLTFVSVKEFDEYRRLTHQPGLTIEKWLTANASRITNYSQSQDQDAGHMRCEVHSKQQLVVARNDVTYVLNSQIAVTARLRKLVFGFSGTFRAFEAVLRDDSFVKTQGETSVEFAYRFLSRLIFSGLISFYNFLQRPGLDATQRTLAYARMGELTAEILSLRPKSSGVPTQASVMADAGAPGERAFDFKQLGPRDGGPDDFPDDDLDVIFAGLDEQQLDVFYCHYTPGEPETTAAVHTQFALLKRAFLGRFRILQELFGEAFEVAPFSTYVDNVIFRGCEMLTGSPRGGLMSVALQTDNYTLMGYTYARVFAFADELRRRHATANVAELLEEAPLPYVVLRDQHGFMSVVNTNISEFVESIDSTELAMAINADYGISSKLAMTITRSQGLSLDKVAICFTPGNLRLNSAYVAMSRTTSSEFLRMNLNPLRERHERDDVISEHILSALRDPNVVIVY
Put plainly: HSV-1 DNA-dependent ATPase assay (inhibition of HSV-1 helicase-primase). The note with it: Group 1 Table 1 entries. The assay is classed as biochemical. An excerpt:
A) HSV-1 DNA-Dependent ATP Assay (an in Vitro Assay Based on the Inhibition of HSV-1 Helicase-primase).
HSV-1 helicase-primase holoenzyme was produced in triply infected Sf21 cells using recombinant baculoviruses expressing the UL5, UL8 and UL52 helicase-primase subunits, as described by S. Dracheva et al., J. Biol. Chem. 1995, 270, 14148. The crude enzyme was purified by ammonium sulfate precipitation, Source 15Q® chromatography and Sephacryl® S-300 HR gel filtration (both purification systems can be obtained from Pharmacia Biotech Inc., Montreal, Quebec, Canada), see S. Dracheva et al., supra.
The DNA-dependent ATPase assay, described by J. J. Crute et al., Nucleic Acids Res. 1988, 16, 6585, was modified and used to evaluate the capability of the compounds of Group 1-formula 1 to inhibit HSV-1 helicase-primase activity. The reaction mixtures (80 μL each) contained 40 mM 4-(2-hydroxyethyl)-1-piperazineethanesulfonic acid (HEPES, pH 7.5), 10% (v/v) glycerol, 5.5 mM MgCl2, 1 mM DL-dithiothreitol (DTT), 50 μg/mL acetylated bovine serum albumin, 3.3% (v/v) DMSO, 4 mM ATP, 25 μM single-stranded M13 DNA hybridized to double-tailed 68-mer oligonucleotide and 3 μg/mL HSV-1 helicase-primase. After incubation for 20 min at 34°, formation of inorganic phosphate from hydrolysis of ATP was monitored spectrophotometrically at 650 nm using acidic ammonium molybdate/malachite green reagent, P. A. Lanzetta et al., Anal. Biochem. 1979, 100, 95. DNA-dependent ATPase activity was calculated from the net absorbance change in the presence and absence of inhibition.

Consider 17 compounds from patent US6288091A, “Antiherpes virus compounds and methods for their preparation and use” (Boehringer Ingelheim Ltd., priority 1999, dated 2001).

Broadly, the EC50 is the concentration needed to bring the measured effect to its halfway point. Low values mean higher potency in that assay, high ones lower potency in that assay. The term IC50 denotes the point on the concentration scale where inhibition reaches its midpoint. Regarding `Nc1nc(-c2ccc(NC(=O)CN(Cc3cccs3)C(=O)c3ccncc3)cc2)cs1` [Example 159], in the assay on HSV-1 strain F or KOS, the EC50 came to 210 nM. For the same compound, on HSV-1 helicase-primase, 1700 nM corresponded to half-maximal inhibition (IC50).

Consider `Nc1nc(-c2ccc(NC(=O)CN(Cc3ccc(F)cc3)C(=O)c3ccccc3)cc2)cs1` [Example 59], for which the EC50 in the assay on HSV-1 strain F or KOS worked out at 15 nM. For the same compound, the midpoint of inhibition against HSV-1 helicase-primase, the IC50, lay at 300 nM.

Take `Nc1nc(-c2ccc(NC(=O)CN(Cc3ccccc3F)Cc3ccccc3F)cc2)cs1` [Example 17]: the midpoint of the response with HSV-1 strain F or KOS, the EC50, lay at 4000 nM. The same compound registered an IC50 against HSV-1 helicase-primase of 1800 nM.

Take `Cc1nc(C(=O)N(CC(=O)Nc2ccc(-c3csc(N)n3)cc2)Cc2ccccc2)cs1` [Example 172]: in the assay on HSV-1 strain F or KOS, the EC50 stood at 360 nM. In addition, 1600 nM corresponded to half-maximal inhibition at HSV-1 helicase-primase (IC50).

Consider `Nc1nc(C(=O)N(CC(=O)Nc2ccc(-c3csc(N)n3)cc2)Cc2ccccc2)cs1` [Example 171], for which a half-maximal response in the assay on HSV-1 strain F or KOS (EC50) required 92 nM. This compound yielded an IC50 against HSV-1 helicase-primase of 460 nM.

On to `Cc1ccc(CN(CC(=O)Nc2ccc(-c3csc(N)n3)cc2)C(=O)c2ccncc2)cc1` [Example 152], for which the EC50 in the assay with HSV-1 strain F or KOS came to 77 nM. This compound had an IC50 against HSV-1 helicase-primase of 1600 nM.

On to `Cc1nc(CN(CC(=O)Nc2ccc(-c3csc(N)n3)cc2)C(=O)c2ccncc2)cs1` [Example 162], for which, in the assay on HSV-1 strain F or KOS, the half-maximal effective concentration (EC50) is 69 nM. At HSV-1 helicase-primase, this compound yielded an IC50 of 2500 nM.

In the assay with HSV-1 strain F or KOS, `CN(C)c1cccc2c(S(=O)(=O)N(CC(=O)Nc3ccc(-c4csc(N)n4)cc3)Cc3ccncc3)cccc12` [Example 99] showed a 50% effective concentration (EC50) of 670 nM. Also, the IC50 at HSV-1 helicase-primase amounted to 1600 nM.

With `Nc1nc(-c2ccc(NC(=O)CN(CCc3ccncc3)C(=O)c3ccncc3)cc2)cs1` [Example 174], in the assay with HSV-1 strain F or KOS, the concentration giving a half-maximal response (EC50) stood at 6600 nM. On HSV-1 helicase-primase, this compound registered an IC50 of 9200 nM.

`Cc1cccc(CN(CC(=O)Nc2ccc(-c3csc(N)n3)cc2)C(=O)c2ccncc2)c1C` [Example 154] came in with an EC50 in the assay with HSV-1 strain F or KOS of 5 nM. Moreover, on HSV-1 helicase-primase, half-maximal inhibition (IC50) required 41 nM.

With `Nc1nc(-c2ccc(NC(=O)CN(Cc3c(F)cccc3F)C(=O)c3ccncc3)cc2)cs1` [Example 153], in the assay with HSV-1 strain F or KOS, the midpoint of the response, the EC50, lay at 190 nM. For the same compound, inhibition against HSV-1 helicase-primase was half-maximal at 1900 nM (IC50).

In turn, `COc1ccc(CNCC(=O)Nc2ccc(-c3csc(N)n3)cc2)cc1` [Example 7] displayed an EC50 in the assay with HSV-1 strain F or KOS of 7000 nM. The compound further displayed an IC50 against HSV-1 helicase-primase of 48000 nM.

In turn, `Nc1nc(-c2ccc(NC(=O)CN(CCc3cccs3)C(=O)c3ccncc3)cc2)cs1` [Example 160] yielded an EC50 in the assay on HSV-1 strain F or KOS of 51 nM. The same compound had an IC50 against HSV-1 helicase-primase of 680 nM.

In turn, `Cc1cccc(CN(CC(=O)Nc2ccc(-c3csc(N)n3)cc2)C(=O)c2ccncc2)c1` [Example 151] showed an EC50 in the assay with HSV-1 strain F or KOS of 11 nM. Besides, the IC50 against HSV-1 helicase-primase turned out to be 76 nM.

As for `Cc1ccn(C)c1C(=O)N(CC(=O)Nc1ccc(-c2csc(N)n2)cc1)Cc1ccccc1` [Example 166], in the assay with HSV-1 strain F or KOS, the EC50 was 30 nM. For the same compound, half-maximal inhibition at HSV-1 helicase-primase (IC50) was put at 430 nM.

With `Nc1nc(-c2ccc(NC(=O)CN(CCc3nccs3)C(=O)c3ccncc3)cc2)cs1` [Example 163], the EC50 in the assay with HSV-1 strain F or KOS turned out to be 680 nM. Further, at HSV-1 helicase-primase, the midpoint of inhibition, the IC50, lay at 2400 nM.

With `Nc1nc(-c2ccc(NC(=O)CN(Cc3cscn3)C(=O)c3ccncc3)cc2)cs1` [Example 161], in the assay on HSV-1 strain F or KOS, the EC50 was 530 nM. The compound also displayed an IC50 at HSV-1 helicase-primase of 3400 nM.
